In patent US7125878B2, “Substituted pyrroline kinase inhibitors” (Janssen Pharmaceutica, priority 2002, dated 2006):
Values joined by “and” are separate entries in the source; they are usually repeats but may differ in a detail not shown here. Equal entries are not always repeated.

How the values were obtained:
[1] = target: PKC-α (Homo sapiens, UniProt P17252); experiment: Protein Kinase C Histone-Based Assay, isozyme α; conditions: for inhibition at 10 µM / inhibition at 1 µM: read-out: PKC-α % inhibition
Experimental: (§1) Compounds were evaluated for PKC isozyme selectivity using histone III as the substrate. […] 100 μg/mL phosphatidylserine, 20 μg/mL diacylglycerol, 30 μM ATP, 1 μCi [^33P]ATP and 200 μg/mL histone III. The reaction was incubated for 10 min at 30° C. Reactions were terminated by TCA precipitation and spotting on Whatman P81 filters. Filters were washed in 75 mM phosphoric acid and the radioactivity quantified by liquid scintillation counting.

[2] = target: T1, recombinant rabbit GSK-3β protein (Oryctolagus cuniculus, UniProt G1T8E2); experiment: Glycogen Synthase Kinase-3 Assay (33P phosphorylation of PPI-2); format: biochemical; conditions: for IC50: two numbers = data obtained on different days; for inhibition at 1 µM: two numbers = different days
T1 construct: purchased New England Biolabs
T1 sequence (G1T8E2 1-432): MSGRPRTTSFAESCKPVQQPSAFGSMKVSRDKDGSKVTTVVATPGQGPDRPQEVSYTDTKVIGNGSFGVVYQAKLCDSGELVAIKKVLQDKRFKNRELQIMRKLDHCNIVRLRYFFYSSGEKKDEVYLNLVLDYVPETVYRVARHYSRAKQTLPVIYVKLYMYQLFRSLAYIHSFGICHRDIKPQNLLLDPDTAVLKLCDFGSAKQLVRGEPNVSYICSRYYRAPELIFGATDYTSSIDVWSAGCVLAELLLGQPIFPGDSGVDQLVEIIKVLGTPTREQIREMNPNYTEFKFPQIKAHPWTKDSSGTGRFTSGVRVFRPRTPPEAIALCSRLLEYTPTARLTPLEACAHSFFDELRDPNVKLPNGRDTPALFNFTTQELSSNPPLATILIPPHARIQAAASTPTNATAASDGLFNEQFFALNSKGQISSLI
Experimental: Glycogen Synthase Kinase-3 Assay
Compounds were tested for the ability to inhibit recombinant rabbit GSK-3β protein using the following protocol. The test compound was added to a reaction mixture containing Protein Phosphatase Inhibitor-2 (PPI-2) (Calbiochem) (45 ng), rabbit GSK-3β protein (New England Biolabs) (0.75 units) and ^33P-ATP (1 μCi) in 50 mM Tris-HCl (pH 8.0), 10 mM MgCl2, 0.1% BSA, 1 mM DTT and 100 μM Sodium Vanadate. The mixture was reacted for 90 minutes at 30° C. to allow phosphorylation of the PPI-2 protein and then the protein in the reaction was precipitated using 10% TCA. The precipitated protein was collected on filter plates (MultiScreen-DV/Millipore), which were subsequently washed. Finally, the radioactivity was quantified using a TopCount Scintillation Counter (Packard). […] Staurosporine or Valproate, known inhibitors of GSK-3β, were used as a positive control for screening.

[3] = target: PKC-γ (Homo sapiens, UniProt P05129); experiment: Protein Kinase C Histone-Based Assay, isozyme γ; conditions: for inhibition at 10 µM / inhibition at 1 µM: read-out: PKC-γ % inhibition
Experimental: as §1

[4] = target: PKC-βII (Homo sapiens, UniProt P05771); experiment: Protein Kinase C Histone-Based Assay, isozyme β-II; format: biochemical; conditions: for IC50: histone III substrate
Chain of PKC-βII (P05771 1-673 isoform P05771-2): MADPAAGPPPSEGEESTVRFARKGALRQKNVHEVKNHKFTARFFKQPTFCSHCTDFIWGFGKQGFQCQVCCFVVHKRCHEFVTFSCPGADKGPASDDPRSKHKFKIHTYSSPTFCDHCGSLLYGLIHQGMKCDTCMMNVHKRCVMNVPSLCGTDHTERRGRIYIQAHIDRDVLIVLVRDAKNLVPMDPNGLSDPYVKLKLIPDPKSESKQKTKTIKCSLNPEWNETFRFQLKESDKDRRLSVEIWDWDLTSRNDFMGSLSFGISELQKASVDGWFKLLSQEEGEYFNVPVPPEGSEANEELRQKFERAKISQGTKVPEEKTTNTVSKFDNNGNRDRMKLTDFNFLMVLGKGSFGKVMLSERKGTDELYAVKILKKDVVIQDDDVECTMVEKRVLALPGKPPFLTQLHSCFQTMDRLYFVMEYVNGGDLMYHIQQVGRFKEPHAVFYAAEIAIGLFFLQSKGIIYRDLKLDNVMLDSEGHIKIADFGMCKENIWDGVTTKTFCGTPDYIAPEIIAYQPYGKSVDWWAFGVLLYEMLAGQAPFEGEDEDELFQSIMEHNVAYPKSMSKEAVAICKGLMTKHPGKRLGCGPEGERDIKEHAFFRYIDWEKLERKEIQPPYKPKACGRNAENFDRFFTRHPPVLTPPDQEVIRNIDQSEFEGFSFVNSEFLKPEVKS
Experimental: as §1

| inhibition at 10 µM [1] [%] | IC50 [2] | inhibition at 10 µM [3] [%] | inhibition at 1 µM [4] [%] | IC50 [1] [nM] | inhibition at 1 µM [2] [%] | IC50 [3] [nM] | IC50 [4] [nM] | inhibition at 1 µM [1] [%] | inhibition at 1 µM [3] [%] | inhibition at 10 µM [4] [%] | inhibition at 0.4 µM ([2]; @400 nM) [%] | inhibition at 0.1 µM ([2]; @100 nM) [%] | SMILES |
| --- | --- | --- | --- | --- | --- | --- | --- | --- | --- | --- | --- | --- | --- |
| 31 | 8 nM and 11 nM | 35 | 35 |  |  |  |  |  |  |  |  |  | COC(=O)NCCCn1cc(C2=C(c3ccccc3OC)C(=O)NC2=O)c2cccnc21 [Cpd 35, [3-[3-[2,5-dihydro-4-(2-methoxyphenyl)-2,5-dioxo-1H-pyrrol-3-yl]-1H-pyrrolo[2,3-b]pyridin-1-yl]propyl]-carbamic acid methyl ester] |
| 33 | 7 nM and 9 nM | 48 | 21 |  |  |  |  |  |  |  |  |  | COc1ccccc1C1=C(c2cn(CCCNC=O)c3ncccc23)C(=O)NC1=O [Cpd 78, N-[3-[3-[2,5-dihydro-4-(2-methoxyphenyl)-2,5-dioxo-1H-pyrrol-3-yl]-1H-pyrrolo[2,3-b]pyridin-1-yl]propyl]-formamide] |
|  |  |  |  | 1440 | 44 | 859 | 36 |  |  |  |  |  | O=C1NC(=O)C(c2nn(CCCO)c3ccccc23)=C1c1cn(-c2ccc3ccccc3c2)c2ncccc12 [Cpd 21, 3-[1-(3-hydroxypropyl)-1H-indazol-3-yl]-4-[1-(2-naphthalenyl)-1H-pyrrolo[2,3-b]pyridin-3-yl]-1H-pyrrole-2,5-dione] |
|  |  |  |  | 53 | 21 | 151 | 2 |  |  |  |  |  | CN(C)CCCn1nc(C2=C(c3cn(-c4ccc5ccccc5c4)c4ncccc34)C(=O)NC2=O)c2ccccc21 [Cpd 20, 3-[1-[3-(dimethylamino)propyl]-1H-indazol-3-yl]-4-[1-(2-naphthalenyl)-1H-pyrrolo[2,3-b]pyridin-3-yl]-1H-pyrrole-2,5-dione] |
| 51 | 30 nM and 31 nM | 31 | 30 |  |  |  |  | 0 | 20 | 89 |  |  | O=C1NC(=O)C(c2cn(CCCO)c3ncccc23)=C1c1cccc2ccccc12 [Cpd 3, 3-[1-(3-hydroxypropyl)-1H-pyrrolo[2,3-b]pyridin-3-yl]-4-(1-naphthalenyl)-1H-pyrrole-2,5-dione] |
|  | 14 nM and 19 nM |  |  | 5270 |  | 4750 | 342 |  |  |  |  |  | COC(=O)NCCCn1cc(C2=C(c3ccccc3C(F)(F)F)C(=O)NC2=O)c2cccnc21 [Cpd 37, [3-[3-[2,5-dihydro-4-(2-trifluoromethylphenyl)-2,5-dioxo-1H-pyrrol-3-yl]-1H-pyrrolo[2,3-b]pyridin-1-yl]propyl]-carbamic acid methyl ester] |
| 34 |  | 57 | 21 |  |  |  |  | 0 | 44 | 81 | 56 |  | O=C1NC(=O)C(c2cn(CCCO)c3ncccc23)=C1c1csc2ccc(Cl)cc12 [Cpd 5, 3-(5-chlorobenzo[b]thien-3-yl)-4-[1-(3-hydroxypropyl)-1H-pyrrolo[2,3-b]pyridin-3-yl]-1H-pyrrole-2,5-dione] |
| 26 | 2 nM and 3 nM |  | 49 |  |  |  |  |  |  |  |  |  | COc1ccccc1C1=C(c2cn(CCCNC(C)=O)c3ncccc23)C(=O)NC1=O [Cpd 77, N-[3-[3-[2,5-dihydro-4-(2-methoxyphenyl)-2,5-dioxo-1H-pyrrol-3-yl]-1H-pyrrolo[2,3-b]pyridin-1-yl]propyl]-acetamide] |
| 2 | 9 nM and 10 nM | 43 | 14 |  |  |  |  | 18 | 48 | 81 |  |  | O=C1NC(=O)C(c2cn(CCCO)c3ncccc23)=C1c1ccccc1Cl [Cpd 1, 3-(2-chlorophenyl)-4-[1-(3-hydroxypropyl)-1H-pyrrolo[2,3-b]pyridin-3-yl]-1H-pyrrole-2,5-dione] |
| 34 |  | 59 | 47 |  |  |  |  | 0 | 48 | 84 |  | 51 | CN(C)CCCn1cc(C2=C(c3cccc4ccccc34)C(=O)NC2=O)c2cccnc21 [Cpd 4, 3-[1-[3-(dimethylamino)propyl]-1H-pyrrolo[2,3-b]pyridin-3-yl]-4-(1-naphthalenyl)-1H-pyrrole-2,5-dione] |
|  | 15 nM and 10 nM |  |  |  |  |  |  |  |  |  |  |  | COc1ncc(C2=C(c3cn(CCCc4ccccc4)c4ncccc34)C(=O)NC2=O)c(OC)n1 [Cpd 57, 3-(2,4-Dimethoxy-pyrimidin-5-yl)-4-[1-(3-phenyl-propyl)-1H-pyrrolo[2,3-b]pyridin-3-yl]-pyrrole-2,5-dione] |
| 1 | 19 nM | 54 | 22 |  |  |  |  | 0 | 46 | 50 |  |  | CN(C)CCCn1cc(C2=C(c3ccccc3Cl)C(=O)NC2=O)c2cccnc21 [Cpd 2, 3-(2-chlorophenyl)-4-[1-[3-(dimethylamino)propyl]-1H-pyrrolo[2,3-b]pyridin-3-yl]-1H-pyrrole-2,5-dione] |
|  | 15 nM and 8 nM |  |  |  |  |  |  |  |  |  |  |  | O=C1NC(=O)C(c2cn(CCCO)c3ncccc23)=C1c1cc[nH]c1 [Cpd 24, 4-[1-(3-hydroxypropyl)-1H-pyrrolo[2,3-b]pyridin-3-yl]-[3,3′-bi-1H-pyrrole]-2,5-dione] |
